What is called IC50 is the midpoint of a concentration-inhibition curve. A high value points to lower potency.

Square brackets hold non-standard residues; d marks the D form. Peptide text beside a SMILES is read from it. * marks the point of attachment. Thz = O=C(O)[C@@H]1CSCN1; Cbz = O=C(OCc1ccccc1)*

The target in this experiment is T1, prolyl endopeptidase (Bos taurus, UniProt Q9XTA2).
T1 construct: the enzyme purified from bovine brain; from tissue; host or cells: bovine brain
T1 sequence (Q9XTA2 1-710): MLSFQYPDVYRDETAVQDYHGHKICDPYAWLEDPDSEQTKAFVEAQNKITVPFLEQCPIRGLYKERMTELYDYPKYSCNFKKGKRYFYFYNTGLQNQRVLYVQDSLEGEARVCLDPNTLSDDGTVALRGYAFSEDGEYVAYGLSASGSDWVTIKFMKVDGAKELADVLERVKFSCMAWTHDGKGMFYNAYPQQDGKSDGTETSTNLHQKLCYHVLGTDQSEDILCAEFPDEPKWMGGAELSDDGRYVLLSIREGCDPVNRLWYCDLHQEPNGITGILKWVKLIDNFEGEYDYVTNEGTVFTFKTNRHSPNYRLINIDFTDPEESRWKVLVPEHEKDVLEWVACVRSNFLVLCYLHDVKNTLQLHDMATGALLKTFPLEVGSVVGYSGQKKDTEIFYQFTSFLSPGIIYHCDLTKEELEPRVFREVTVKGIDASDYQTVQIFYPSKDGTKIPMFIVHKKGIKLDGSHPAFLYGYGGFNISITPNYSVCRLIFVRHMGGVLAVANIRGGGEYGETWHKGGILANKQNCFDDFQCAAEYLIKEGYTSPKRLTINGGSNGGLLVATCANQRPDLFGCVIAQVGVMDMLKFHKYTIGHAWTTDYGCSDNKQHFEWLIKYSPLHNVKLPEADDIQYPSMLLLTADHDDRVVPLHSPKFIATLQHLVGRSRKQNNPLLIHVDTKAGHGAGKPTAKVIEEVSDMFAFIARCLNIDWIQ
The experiment can be described thus: Inhibitory Effect for Prolyl Endopeptidase (enzyme purified from bovine brain). Format: biochemical. On the procedure: To 0.5 ml of the supernatant was added 0.5 ml of 0.1% sodium nitrite aqueous solution, and after 3 minutes, 0.5 ml of 0.5% ammonium sulfamate and 1 ml of 0.05% N-(1-naphthyl)ethylenediamine dihydrochloride in ethanol were further added . The mixture was left for 25 minutes at 37° C., and the absorbance was measured at 570 nm.
The unit of the enzyme activity (μmol/min/ml)=ΔOD×0.42×a dilution factor
`COC(=O)[C@@H]1CSCN1C(=O)[C@@H]1CSCN1C(=O)OCc1ccccc1` [Compound G, (R)-(-)-3-[(R)-(-)-3-Benzyloxycarbonylthiazolidine-4-carbonyl]thiazolidine-4-carboxylic acid methyl ester] (Cbz-[Thz]-[Thz]-OMe) showed an IC50 of 210 nM.
With `O=C([C@@H]1CSCN1C(=O)OCc1ccccc1)N1CCSCC1` [Compound F, N-[(R)-(-)-3-Benzyloxycarbonylthiazolidine-4-carbonyl]thiomorpholine] the figure was 230000 nM; with `O=C([C@@H]1CSCN1C(=O)Cc1ccccc1)N1CCSC1` [Compound N, 3-[(R)-(-)-3-Phenylacetylthiazolidine-4-carbonyl]thiazolidine], 63.1 nM; with `O=C([C@@H]1CSCN1C(=O)c1ccncc1)N1CCSC1` [Compound U, 3-[(R)-(-)-3-Isonicotinoylthiazoidine-4-carbonyl]thiazolidine], 1300 nM.
Under `O=C([C@@H]1CSCN1C(=O)Cc1ccccc1)N1CCCC1` [Compound O, 1-[(R)-(-)-3-Phenylacetylthiazolidine-4-carbonyl]pyrrolidine] stands 660 nM.
For `COC(=O)[C@@H]1CCCN1C(=O)[C@@H]1CSCN1C(=O)OCc1ccccc1` [Compound B, (S)-(-)-N-[(R)-(-)-3-Benzyloxycarbonylthiazolidine-4-carbonyl]pyrrolidine-2-carboxylic acid methyl ester] (Cbz-[Thz]-Pro-OMe), the IC50 was found to be 72000 nM.
With `O=C([C@@H]1CSCN1C(=O)CCc1ccccc1)N1CCSC1` [Compound H, 33-[(R)-(-)-3-(3-Phenylpropionyl)thiazolidine-4-carbonyl]thiazolidine] the figure was 400 nM.
The compound `O=C([C@@H]1CSCN1C(=O)OCc1ccccc1)N1CCSC1` [Compound A, 3-[(R)-(-)-3-Benzyloxycarbonylthiazolidine-4-carbonyl]thiazolidine] returned an IC50 of 0.26 nM.
Regarding `O=C([C@@H]1CSCN1C(=O)C=Cc1ccccc1)N1CCCC1` [Compound Q, 1-[(R)-(-)-3-Cinnamoylthiazolidine-4-carbonyl]pyrrolidine], it took 4600 nM to reach half-maximal inhibition (IC50).
Regarding `O=C([C@@H]1CSCN1C(=O)C=Cc1ccccc1)N1CCSC1` [Compound P, 3-[(R)-(-)-3-Cinnamoylthiazolidine-4-carbonyl]thiazolidine], the IC50 was found to be 3240 nM.

For the origin of these results see patent US4857524A, “Thiazolidine compounds and therapeutic method” (Kissei Pharmaceutical Co., Ltd., priority 1987, dated 1989).
